Data from PMC3471028, “A Laccase with Antiproliferative and HIV-I Reverse Transcriptase Inhibitory Activities from the Mycorrhizal Fungus Agaricus placomyces” (Journal of Biomedicine and Biotechnology, 2012).
Counter-ions that a name gives are not always drawn.

System: T1, A. placomyces laccase
T1 construct: gene EC 1.10.3.2; native, purified from fruiting bodies; 68 kDa monomer
Assay: spectrophotometric oxidation assay, Lineweaver-Burk plot
Type: biochemical, Agaricus placomyces
Conditions: 50 mM sodium acetate, pH 5.2, 30°C

SMILES	Km
CCn1c(=NN=c2sc3cc(S(=O)(=O)O)ccc3n2CC)sc2cc(S(=O)(=O)O)ccc21 [ABTS, 2,7′-azinobis[3-ethylbenzothiazolone-6-sulfonic acid] diammonium salt]	775 µM
Oc1ccc(O)cc1 [hydroquinone]	392 µM
